From patent US20240091358A1, “[…] REGULATION” (Senti Biosciences, Inc., priority 2021, published 2024)

Experiments:
Type in all cases: cell-based
HEK293Ft cells [1] = test: SEAP QuantiBlue assay of Membrane-Cleavable Degron constructs in HEK293Ft cells (Example 2); settings: 1 μM lenalidomide vs no drug
HEK293Ft cells [2] = test: SEAP QuantiBlue assay of SEAP/degron constructs in HEK293Ft cells (Example 1); settings: 1 μM lenalidomide vs no drug
donor-derived T cells [3] = test: SEAP QuantiBlue assay of Membrane-Cleavable Degron constructs in donor-derived T cells (Example 2); settings: supernatant, 1 μM lenalidomide vs no drug
Method: A series of pL17d-based viral vector constructs were generated using Secreted Alkaline Phosphatase (SEAP) fused to a degron (d913 super degron) using various linkers, including transmembrane domain containing linkers, as described in Table 8A with sequences listed in Table 8B.
(§1) SEAP assays were performed using the QuantiBlue kit (Invivogen; rep-qb1). […] The CliniMACS Prodigy utilizes a closed-system, single-use disposable kits for many different cell types. The automated program performs platelet washes, CD4+& CD8+ bead labeling, and positive selection over a magnet resulting in cell suspensions with high purity. Positively selected T cells were then sampled, analyzed for cell surface phenotype via flow cytometry and cryopreserved via a controlled rate freezer. • Cells were then thawed and activated on Day 0 (1e6 cells/mL in a 24 well plate were activated 3:1 with CD3/CD28 Dynabeads) • On Day 1, 100K GS units of virus were added to cells • On Day 2, fresh media was added to T cells • On Day 4, each well was split into 6 wells of 48 well plate with +/−1 μM lenalidomide (3 wells with drug, 3 wells without) • On Day 7, cells were pelleted and 20 uL supernatant from each well was harvested and incubated with 180 uL QuantiBlue (Invivogen) for 1 h at 37 deg, SEAP activity was read out on a plate reader at 655 nm

Jurkat T cells = test: SEAP QuantiBlue assay in Jurkat T cells (Example 3); settings: supernatant, 1 μM lenalidomide vs no drug
Method: The viral vector constructs were generated, as described above, using Secreted Alkaline Phosphatase (SEAP) fused to a degron (d913 super degron) with various linkers, including transmembrane domain containing linkers. The constructs examined are described in Table 10.
SEAP assays were performed using the QuantiBlue kit (Invivogen; rep-qb1). For experiments performed in Jurkat cells, the following protocol was followed: • On Day 1, cells were plated at 1e6 cells in 1 mL in a 24 well plate and 300 k GS units of virus was added • On Day 3, cells were split into 6 wells of a 48 well plate (1e5 cells in 0.5 mL) and drug was added to 3 of these wells (1 μM lenalidomide) • On Day 6, cells were pelleted and 20 uL supernatant from each well was harvested and incubated with 180 uL QuantiBlue (Invivogen) for 1 h at 37 deg, SEAP activity was read out on a plate reader at 655 nm

donor-derived T cells [4] = test: SEAP QuantiBlue assay of SEAP/degron constructs in donor-derived T cells (Example 1); settings: 1 μM lenalidomide vs no drug
Method: A series of pL17d-based viral vector constructs were generated using Secreted Alkaline Phosphatase (SEAP) fused to a degron (d913 super degron) using various linkers, as described in Table 6A with sequences listed in Table 6B. The d913 super degron is described in more detail in International Application Pub. No. WO2019/089592A1, herein incorporated by reference for all purposes.
as §1, with “into 2” for “into 6”, “of 6” for “of 48”, “lenalidomide” for “lenalidomide (3 wells with drug, 3 wells without)”

[5] = SEAP absorbance divided by cell count per well

Construct 419: pL17d viral vector construct expressing SEAP without a degron; SEQ ID NO: 179 [reference compound]
% SEAP OFF vs. ON (Len treated/untreated *100) Normalized to cell count (HEK293Ft cells [1]; [5]): 104.3% | % SEAP OFF vs. ON (Len treated/untreated *100) (HEK293Ft cells [1]; supernatant): 70% | % SEAP OFF vs. ON (Len treated/untreated *100) Normalized to cell count (HEK293Ft cells [2]; [5]): 133% | % SEAP OFF vs. ON (Len treated/untreated *100) (HEK293Ft cells [2]; supernatant): 103% | % SEAP OFF vs. ON (Len treated/untreated *100) (donor-derived T cells [3]): 129% | OFF % of ON (SEAP enzymatic activity) (Jurkat T cells): 105.3 (ns) % | % SEAP OFF vs. ON (Len treated/untreated *100) Normalized to cell count (donor-derived T cells [4]; [5]): 169% | % SEAP OFF vs. ON (Len treated/untreated *100) (donor-derived T cells [4]; supernatant): 127%
